Experimental data taken from patent US8318769B2, “Substituted sulfonamide compounds” (Gruenethal GmbH, priority 2008, dated 2012).

biological target: T1, bradykinin 1 receptor (B1R) of the rat (Rattus norvegicus, UniProt P97583); assay: FLIPR Ca2+ assay, B1R antagonism, rat; format: cell-based; conditions: 10 μM test substance; CHO K1 cells with rat B1R gene (rB1R cells); Des-Arg9-bradykinin at EC80; % inhibition compared with the maximum achievable inhibition; 10 µM
T1 construct: expressed in transfected cells
T1 sequence (P97583 1-337): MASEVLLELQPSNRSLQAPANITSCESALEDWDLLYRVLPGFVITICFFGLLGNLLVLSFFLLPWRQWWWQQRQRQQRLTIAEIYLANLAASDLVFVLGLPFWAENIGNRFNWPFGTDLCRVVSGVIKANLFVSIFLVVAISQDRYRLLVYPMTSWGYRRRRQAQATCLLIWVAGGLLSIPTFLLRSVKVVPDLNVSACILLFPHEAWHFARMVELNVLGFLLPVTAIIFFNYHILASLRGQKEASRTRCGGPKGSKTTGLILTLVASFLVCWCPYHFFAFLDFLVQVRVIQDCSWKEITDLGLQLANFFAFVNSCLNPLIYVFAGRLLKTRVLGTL
Experimental: The agonistic or antagonistic action of substances can be quantified on the bradykinin 1 receptor (B1R) of the human and rat species with ectopically expressing cell lines (CHO K1 cells) and with the aid of a Ca^2+-sensitive dyestuff (Fluo-4) in a fluorescent imaging plate reader (FLIPR). The figure in % activation is based on the Ca^2+ signal after addition of Lys-Des-Arg^9-bradykinin (0.5 nM) or Des-Arg^9-bradykinin (100 nM). Antagonists lead to a suppression of the Ca^2+ inflow after addition of the agonist. % inhibition compared with the maximum achievable inhibition is stated.
The agonistic or antagonistic action of substances can be determined on the bradykinin 1 receptor (B1R) of the human and rat species with the following assay. In accordance with this assay, the Ca^2+ inflow through the channel is quantified with the aid of a Ca^2+-sensitive dyestuff (type Fluo-4, Molecular Probes Europe BV, Leiden, Holland) in a fluorescent imaging plate reader (FLIPR, Molecular Devices, Sunnyvale, USA).
Chinese hamster ovary cells (CHO K1 cells) transfected stably with the human B1R gene (hB1R cells) or the B1R gene of the rat (rB1R cells) are used. For functional studies, these cells are plated out on black 96-well plates with a clear base (BD Biosciences, Heidelberg, Germany or Greiner, Frickenhausen, Germany) in a density of 20,000-35,000 cells/well. The cells are left overnight at 37° C. and 5% CO2 in culture medium (hB1R cells: Nutrient Mixture Ham's F12, Gibco Invitrogen GmbH, Karlsruhe, Germany or DMEM, Sigma-Aldrich, Taufkirchen, Germany; rB1R cells: D-MEM/F12, Gibco Invitrogen GmbH, Karlsruhe, Germany) with 10 vol. % FBS (foetal bovine serum, Gibco Invitrogen GmbH, Karlsruhe, Germany or PAN Biotech GmbH, Aidenbach, Germany).
On the following day, the cells are loaded for 60 min at 37° C. with 2.13 μM Fluo-4 (Molecular Probes Europe BV, Leiden, Holland) in HBSS buffer (Hank's buffered saline solution, Gibco Invitrogen GmbH, Karlsruhe, Germany) with 2.5 mM probenecid (Sigma-Aldrich, Taufkirchen, Germany) and 10 mM HEPES (Sigma-Aldrich, Taufkirchen, Germany). The plates are then washed 2× with HBSS buffer, and HBSS buffer which additionally contains 0.1% BSA (bovine serum albumin; Sigma-Aldrich, Taufkirchen, Germany), 5.6 mM glucose and 0.05% gelatine (Merck KGaA, Darmstadt, Germany) is added. After a further incubation of 20 minutes at room temperature, the plates are inserted into the FLIPR for the Ca^2+ measurement.
Alternatively, the plates are washed with buffer A (15 mM HEPES, 80 mM NaCl, 5 mM KCl, 1.2 mM CaCl2, 0.7 mM MgSO4, 2 g/l glucose, 2.5 mM probenecid), buffer A is added and the plates are loaded with 2.5 μM Fluo-4 and 0.025% Pluronic F127 (Sigma-Aldrich, Taufkirchen, Germany). Thereafter, the cells are washed 2× with buffer A and incubated for 30 minutes with buffer A, which additionally contains 0.05% BSA and 0.05% gelatine, at room temperature and thereafter inserted into the FLIPR for the Ca^2+ measurement.
The Ca^2+-dependent fluorescence is measured here before and after addition of substances (λex=488 nm, λem=540 nm). Quantification is by measurement of the highest fluorescence intensity (FC, fluorescence counts) over time.
The FLIPR protocol consists of 2 additions of substance. Test substances (10 μM) are first pipetted on to the cells and the Ca^2+ inflow is compared with the control (hB1R: Lys-Des-Arg^9-bradykinin >=50 nM; rB1R: Des-Arg^9-bradykinin 10 μM). This gives the figure in % activation based on the Ca^2+ signal after addition of Lys-Des-Arg^9-bradykinin (>=50 nM) or Des-Arg^9-bradykinin (10 μM).
After incubation for 10-20 minutes, Lys-Des-Arg^9-bradykinin (hB1R) or Des-Arg^9-bradykinin (rB1R) in the concentration of the EC80 is applied and the inflow of Ca^2+ is likewise determined. Antagonists lead to a suppression of the Ca^2+ inflow. % inhibition compared with the maximum achievable inhibition is calculated. […]

B1R antagonism, rat [10 μM] % inhibition | Compound
83% | O=C(COCC1CCc2ccccc2N1S(=O)(=O)c1ccc2ccccc2c1)N1CCC(OCCN2CCCC2)(c2cccnc2)CC1 (centres unmarked) [Example 130, 2-[[1-(naphthalen-2-ylsulfonyl)-1,2,3,4-tetrahydro-quinolin-2-yl]-methoxy]-1-[4-pyridin-3-yl-4-(2-pyrrolidin-1-yl-ethoxy)-piperidin-1-yl]-ethanone]

same assay, conditions: CHO-K1, 10 μM test substance; CHO K1 cells with rat B1R gene (rB1R cells); Des-Arg9-bradykinin at EC80; % inhibition compared with the maximum achievable inhibition; read-out: B1R antagonism, rat [10 μM] % inhibition

inhibition at 10 µM | Compound
96% | COc1cc(C)c(S(=O)(=O)N2CCCCC2COCC(=O)N2CCC(OCCN3CCCC3)(c3ccc(C(F)(F)F)cc3)CC2)c(C)c1 (centres unmarked) [Example 65, 2-[[1-[(4-methoxy-2,6-dimethyl-phenyl)sulfonyl]-piperidin-2-yl]-methoxy]-1-[4-(2-pyrrolidin-1-yl-ethoxy)-4-[4-(trifluoromethyl)-phenyl]-piperidin-1-yl]-ethanone]
98% | Cc1cccc(Cl)c1S(=O)(=O)N(CCOCC(=O)N1CCC(OCCN2CCCC2)(c2ccc(F)cc2)CC1)C1CC1 [Example 70, 2-chloro-N-cyclopropyl-N-[2-[2-[4-(4-fluorophenyl)-4-(2-pyrrolidin-1-yl-ethoxy)-piperidin-1-yl]-2-oxo-ethoxy]-ethyl]-6-methyl-benzenesulfonic acid amide]
100% | CS(=O)(=O)N(CCOCC(=O)N1CCC(OCCN2CCCC2)(c2cccnc2)CC1)C(c1ccccc1)c1ccccc1 [Example 104, N-benzhydryl-N-[2-[2-oxo-2-[4-pyridin-3-yl-4-(2-pyrrolidin-1-yl-ethoxy)-piperidin-1-yl]-ethoxy]-ethyl]-methanesulfonic acid amide]
99% | CS(=O)(=O)N(CCOCC(=O)N1CCC(OCCN2CCCC2)(c2cccc(F)c2)CC1)C(c1ccccc1)c1ccccc1 [Example 105, N-benzhydryl-N-[2-[2-[4-(3-fluorophenyl)-4-(2-pyrrolidin-1-yl-ethoxy)-piperidin-1-yl]-2-oxo-ethoxy]-ethyl]-methanesulfonic acid amide]
102% | O=C(CCCC1CCCCN1S(=O)(=O)c1ccccc1C(F)(F)F)N1CCC(OCCN2CCCC2)(c2cccc(F)c2)CC1 (centres unmarked) [Example 86, 1-[4-(3-fluorophenyl)-4-(2-pyrrolidin-1-yl-ethoxy)-piperidin-1-yl]-4-[1-[[2-(trifluoromethyl)-phenyl]sulfonyl]-piperidin-2-yl]-butan-1-one]
95% | O=C(CCCC1CCCCN1S(=O)(=O)c1cccc2ccccc12)N1CCC(OCCN2CCCC2)(c2cccnc2)CC1 (centres unmarked) [Example 92, 4-[1-(naphthalen-1-ylsulfonyl)-piperidin-2-yl]-1-[4-pyridin-3-yl-4-(2-pyrrolidin-1-yl-ethoxy)-piperidin-1-yl]-butan-1-one]
44% | O=C(COCC1CCc2ccccc2N1S(=O)(=O)c1ccc2ccccc2c1)N1CCC(OCCN2CCCC2)(c2cccc(F)c2)CC1 (centres unmarked) [Example 131, 1-[4-(3-fluorophenyl)-4-(2-pyrrolidin-1-yl-ethoxy)-piperidin-1-yl]-2-[[1-(naphthalen-2-ylsulfonyl)-1,2,3,4-tetrahydro-quinolin-2-yl]-methoxy]-ethanone]
92% | Cc1cc(S(=O)(=O)N2CCCCC2CCC(=O)N2CCC(OCCN3CCCC3)(c3ccc(F)cc3)CC2)c(C)cc1Cl (centres unmarked) [Example 74, 3-[1-[(4-chloro-2,5-dimethyl-phenyl)sulfonyl]-piperidin-2-yl]-1-[4-(4-fluorophenyl)-4-(2-pyrrolidin-1-yl-ethoxy)-piperidin-1-yl]-propan-1-one]
95% | Cc1cccc(Cl)c1S(=O)(=O)N(CCOCC(=O)N1CCC(OCCN2CCCC2)(c2ccc(C(F)(F)F)cc2)CC1)C1CC1 [Example 71, 2-chloro-N-cyclopropyl-6-methyl-N-[2-[2-oxo-2-[4-(2-pyrrolidin-1-yl-ethoxy)-4-[4-(trifluoromethyl)-phenyl]-piperidin-1-yl]-ethoxy]-ethyl]-benzenesulfonic acid amide]
100% | O=C(CC1CCCCN1S(=O)(=O)c1cccc(C(F)(F)F)c1)N1CCC(OCCN2CCCC2)(c2ccc(C(F)(F)F)cc2)CC1 (centres unmarked) [Example 73, 1-[4-(2-pyrrolidin-1-yl-ethoxy)-4-[4-(trifluoromethyl)-phenyl]-piperidin-1-yl]-2-[1-[[3-(trifluoromethyl)phenyl]sulfonyl]-piperidin-2-yl]-ethanone]
92% | O=C(COCC1CCc2ccccc2N1S(=O)(=O)c1ccc2ccccc2c1)N1CCC(OCCN2CCCC2)(c2cccnc2)CC1 (centres unmarked) [Example 129, 2-[[1-(naphthalen-2-ylsulfonyl)-1,2,3,4-tetrahydro-quinolin-2-yl]-methoxy]-1-[4-pyridin-3-yl-4-(2-pyrrolidin-1-yl-ethoxy)-piperidin-1-yl]-ethanone]
49% | CN(CCCC(=O)N1CCC(OCCN2CCCC2)(c2cccc(F)c2)CC1)S(=O)(=O)c1cccc(C(F)(F)F)c1 [Example 127, N-[4-[4-(3-fluorophenyl)-4-(2-pyrrolidin-1-yl-ethoxy)-piperidin-1-yl]-4-oxo-butyl]-N-methyl-3-(trifluoromethyl)-benzenesulfonic acid amide]
95% | COc1cc(C)c(S(=O)(=O)N2CCCCC2CCCC(=O)N2CCC(OCCN3CCCC3)(c3ccc(F)cc3)CC2)c(C)c1 (centres unmarked) [Example 78, 1-[4-(4-fluorophenyl)-4-(2-pyrrolidin-1-yl-ethoxy)-piperidin-1-yl]-4-[1-[(4-methoxy-2,6-dimethyl-phenyl)sulfonyl]-piperidin-2-yl]-butan-1-one]
98% | COc1cc(C)c(S(=O)(=O)N(CCOCC(=O)N2CCC(OCCN3CCCC3)(c3ccc(C(F)(F)F)cc3)CC2)C2CC2)c(C)c1 [Example 67, N-cyclopropyl-4-methoxy-2,6-dimethyl-N-[2-[2-oxo-2-[4-(2-pyrrolidin-1-yl-ethoxy)-4-[4-(trifluoromethyl)-phenyl]-piperidin-1-yl]-ethoxy]-ethyl]-benzenesulfonic acid amide]
97% | Cc1cccc(Cl)c1S(=O)(=O)N1CCCCC1COCC(=O)N1CCC(OCCN2CCCC2)(c2ccc(C(F)(F)F)cc2)CC1 (centres unmarked) [Example 69, 2-[[1-[(2-chloro-6-methyl-phenyl)sulfonyl]-piperidin-2-yl]-methoxy]-1-[4-(2-pyrrolidin-1-yl-ethoxy)-4-[4-(trifluoromethyl)-phenyl]-piperidin-1-yl]-ethanone]
59% | O=C(CCCC1CCCCN1S(=O)(=O)c1cccc2ccccc12)N1CCC(OCCN2CCCC2)(c2ccncc2)CC1 (centres unmarked) [Example 94, 4-[1-(naphthalen-1-ylsulfonyl)-piperidin-2-yl]-1-[4-pyridin-4-yl-4-(2-pyrrolidin-1-yl-ethoxy)-piperidin-1-yl]-butan-1-one]
